Experimental data: ChEMBL document CHEMBL4334511, “Trivirensols: Selectively Bacteriostatic Sesquiterpene Trimers from the Australian Termite Nest-Derived Fungus Trichoderma virens CMB-TN16” (J Nat Prod, 2019)
Active and inactive are the calls of the source. The calls are words filed in the database; no cut-off is given here.

Experiments:
Enterococcus faecalis [1] = test: Antibacterial activity against vancomycin-resistant Enterococcus faecalis AUS-RBWH-VRE-01 assessed as colony formation unit at 30 uM incubated for 24 hrs by time kill assay; assay type: functional
Escherichia coli [2] = test: Antibacterial activity against Escherichia coli ATCC 11775 assessed as reduction in […] growth at 0.01 to 30 uM incubated for 24 hrs by spectrophotometry based broth microdilution assay; assay type: functional, organism-based
Klebsiella pneumoniae [3] = test: Antibacterial activity against NDM-producing Klebsiella pneumoniae SA-Rd-KAMC-037 assessed as reduction in […] growth at 0.01 to 30 uM incubated for 24 hrs by spectrophotometry based broth microdilution assay; assay type: functional, organism-based
Escherichia coli [4] = test: Antibacterial activity against Escherichia coli KUW-kw-AmH-11 assessed as reduction in […] growth at 0.01 to 30 uM incubated for 24 hrs by spectrophotometry based broth microdilution assay; assay type: functional, organism-based
Enterococcus faecalis [5] = test: Antibacterial activity against vancomycin-resistant Enterococcus faecalis AUS-RBWH-VRE-01 assessed as fold reduction in growth by measuring colony formation unit at 30 uM incubated for 24 hrs by time kill assay; assay type: functional
Pseudomonas aeruginosa [6] = test: Antibacterial activity against VIM producing Pseudomonas aeruginosa SA-EP-KFUH-40 assessed as reduction in […] growth at 0.01 to 30 uM incubated for 24 hrs by spectrophotometry based broth microdilution assay; assay type: functional, organism-based
Enterococcus faecalis [7] = test: Antibacterial activity against vancomycin-resistant Enterococcus faecalis AUS-RBWH-VRE-01 assessed as reduction in […] growth incubated for 24 hrs by spectrophotometry based broth microdilution assay; assay type: functional, organism-based; conditions: Enterococcus faecalis, AUS-RBWH-VRE-01, 24 h; read-out: IC50
Candida albicans = test: Antifungal activity against Candida albicans ATCC 90028 assessed as reduction in fungal growth at 0.01 to 30 uM incubated for 24 hrs by spectrophotometry based broth microdilution assay; assay type: functional, organism-based
Acinetobacter baumannii = test: Antibacterial activity against OXA-23-producing Acinetobacter baumannii SA-Rd-KAMC-083 assessed as reduction in […] growth at 0.01 to 30 uM incubated for 24 hrs by spectrophotometry based broth microdilution assay; assay type: functional, organism-based
[8] = Prodrug conversion in vancomycin-resistant Enterococcus faecalis AUS-RBWH-VRE-01 assessed as hydrolysis product butenolide formation at 30 uM incubated for 24 hrs by UHPLC-DAD-ESIMS analysis; assay type: ADME
[9] = Prodrug conversion in vancomycin-resistant Enterococcus faecalis AUS-RBWH-VRE-01 assessed as hydrolysis product trivirensol B formation at 30 uM incubated for 24 hrs by UHPLC-DAD-ESIMS analysis; assay type: ADME
SW-620 = test: Cytotoxicity against human SW620 cells assessed as reduction in cell viability upto 30 uM incubated for 48 hrs by MTT assay; assay type: cell-based; conditions: sw-620, 48 h
Klebsiella pneumoniae [10] = test: Antibacterial activity against OXA-48-producing Klebsiella pneumoniae SA-Rd-KAMC-014 assessed as reduction in […] growth at 0.01 to 30 uM incubated for 24 hrs by spectrophotometry based broth microdilution assay; assay type: functional, organism-based
Bacillus subtilis = test: Antibacterial activity against Bacillus subtilis ATCC 6633 assessed as reduction in […] growth at 0.01 to 30 uM incubated for 24 hrs by spectrophotometry based broth microdilution assay; assay type: functional, organism-based
Staphylococcus aureus [11] = test: Antibacterial activity against Staphylococcus aureus ATCC 9144 assessed as reduction in […] growth at 0.01 to 30 uM incubated for 24 hrs by spectrophotometry based broth microdilution assay; assay type: functional, organism-based
Streptococcus pyogenes = test: Antibacterial activity against Streptococcus pyogenes ATCC 12344 assessed as reduction in […] growth at 0.01 to 30 uM incubated for 24 hrs by spectrophotometry based broth microdilution assay; assay type: functional, organism-based
NCI-H460 = test: Cytotoxicity against human NCI-H460 cells assessed as reduction in cell viability upto 30 uM incubated for 48 hrs by MTT assay; assay type: cell-based; conditions: nci-h460, 48 h
Staphylococcus aureus [12] = test: Antibacterial activity against methicillin-resistant Staphylococcus aureus AUS-RBWH-MRSA-02 assessed as reduction in […] growth at 0.01 to 30 uM incubated for 24 hrs by spectrophotometry based broth microdilution assay; assay type: functional, organism-based
Pseudomonas aeruginosa [13] = test: Antibacterial activity against IMP producing Pseudomonas aeruginosa UAE-DBI-ZMH-91 assessed as reduction in […] growth at 0.01 to 30 uM incubated for 24 hrs by spectrophotometry based broth microdilution assay; assay type: functional, organism-based
[14] = Prodrug conversion in vancomycin-resistant Enterococcus faecalis AUS-RBWH-VRE-01 assessed as hydrolysis product butenolide formation at 30 uM incubated for 3-6 hrs by UHPLC-DAD-ESIMS analysis; assay type: ADME
[15] = Prodrug conversion in vancomycin-resistant Enterococcus faecalis AUS-RBWH-VRE-01 assessed as hydrolysis product divirensol B formation at 30 uM incubated for 24 hrs by UHPLC-DAD-ESIMS analysis; assay type: ADME

Compound | Activity (Escherichia coli [2]) | Activity (Klebsiella pneumoniae [3]) | Activity (Escherichia coli [4]) | fold change (FC) (Enterococcus faecalis [5]) | Activity (Pseudomonas aeruginosa [6]) | IC50 (Enterococcus faecalis [7]) [µM] | Activity (Candida albicans) | Activity (Acinetobacter baumannii) | Drug metabolism [8] | Activity (SW-620) | Activity (Klebsiella pneumoniae [10]) | Activity (Bacillus subtilis) | Activity (Staphylococcus aureus [11]) | Activity (Streptococcus pyogenes) | Activity (NCI-H460) | Activity (Staphylococcus aureus [12]) | Activity (Pseudomonas aeruginosa [13]) | further results
CCCCCCCCCC(=O)N[C@@H](Cc1c[nH]c2ccccc12)C(=O)N[C@H](CC(N)=O)C(=O)N[C@@H](CC(=O)O)C(=O)N[C@@H]1C(=O)NCC(=O)N[C@@H](CCCN)C(=O)N[C@@H](CC(=O)O)C(=O)N[C@H](C)C(=O)N[C@@H](CC(=O)O)C(=O)NCC(=O)N[C@H](CO)C(=O)N[C@@H]([C@H](C)CC(=O)O)C(=O)N[C@@H](CC(=O)c2ccccc2N)C(=O)O[C@@H]1C |  |  |  |  |  |  |  |  |  |  |  |  |  |  |  |  |  | Activity (Enterococcus faecalis [1]): 50 CFU/ml
CC(C)[C@H]1CC[C@@](O)(COC(=O)C2=C[C@@H]3[C@@H](C(C)C)CC[C@@](O)(COC(=O)/C(=C/[C@@H]4[C@@H](C(C)C)CC[C@@]5(O)COC(=O)[C@@H]45)CO)[C@H]3C(=O)OC2)[C@H]2C(=O)OCC(C(=O)O)=C[C@H]12 | inactive | inactive | inactive | 10000 | inactive | 8 | inactive | inactive | Metabolite_Notdetected | Non-Toxic | inactive | inactive | inactive | inactive | Non-Toxic | inactive | inactive | Drug metabolism [9]: Metabolite_Detected
CC(C)[C@H]1CC[C@@](O)(COC(=O)/C(=C/[C@@H]2[C@@H](C(C)C)CC[C@@]3(O)COC(=O)[C@@H]23)CO)[C@@H](C(=O)O)[C@@H]1/C=C(\CO)C(=O)O[C@@]12CC[C@H](C(C)C)[C@@H](/C=C(\CO)C(=O)O)[C@@H]1C(=O)OC2 | inactive | inactive | inactive | 1000 | inactive | 10 | inactive | inactive | Metabolite_Notdetected | Non-Toxic | inactive | inactive | inactive | inactive | Non-Toxic | inactive | inactive | Drug metabolism [14]: Metabolite_Detected
CC(C)[C@H]1CC[C@@](O)(COC(=O)/C(=C/[C@@H]2[C@@H](C(C)C)CC[C@@]3(O)COC(=O)[C@@H]23)CO)[C@H]2C(=O)OCC(C(=O)O)=C[C@H]12 | inactive | inactive | inactive |  | inactive |  | inactive | inactive | Metabolite_Notdetected | Non-Toxic | inactive | inactive | inactive | inactive | Non-Toxic | inactive | inactive | Activity (Enterococcus faecalis [5]): Active; Drug metabolism [15]: Metabolite_Detected
CC(C)[C@H]1CC[C@@](O)(COC(=O)/C(=C/[C@@H]2[C@@H](C(C)C)CC[C@@](O)(COC(=O)/C(=C/[C@H]3C4=C(CC[C@@H]3C(C)C)COC4=O)CO)[C@H]2C(=O)O)CO)[C@H]2C(=O)OCC(C(=O)O)=C[C@H]12 | inactive | inactive | inactive | 10000 | inactive | 1 | inactive | inactive |  | Non-Toxic | inactive | inactive | inactive | inactive | Non-Toxic | inactive | inactive | 
